The record followed here is ChEMBL document CHEMBL1208781, “Identification of N-(2-(azepan-1-yl)-2-phenylethyl)-benzenesulfonamides as novel inhibitors of GlyT1” (Bioorg Med Chem Lett, 2010).

Type in all cases: ADME, organism-based
The nature of data set [1]: Plasma concentration in Sprague-Dawley rat at 2.5 umol/kg, sc after 1 hr. The following applies: read-out: Drug uptake.
For data set [2], the system named is Brain. Briefly: Drug level in Sprague-Dawley rat brain at 2.5 umol/kg, sc after 1 hr. The following applies: in vivo.
The nature of data set [3]: Drug level in brain to plasma in Sprague-Dawley rat at 2.5 umol/kg, sc after 1 hr.

Consider `COc1ccccc1C(CNS(=O)(=O)c1ccc(Cl)cc1)N1CCCCCC1` (centres undefined), for which the concentration at 1 h in data set [1] is 103 nM. Moreover, the Drug uptake in data set [2] was determined as 202 nmol/kg. Further, in data set [3], the Kp at 1 h turned out to be 1.9.
Consider `COc1ccccc1C(CNS(=O)(=O)c1ccc(F)c(Cl)c1)N1CCCCCC1` (centres undefined), for which the concentration at 1 h in data set [1] came out at 105 nM. For the same compound, the Drug uptake in data set [2] was 168 nmol/kg. For the same compound, in data set [3], the Kp at 1 h came to 1.6.
As for `COc1ccccc1C(CNS(=O)(=O)c1ccc(C(F)(F)F)cc1)N1CCCCCC1` (centres undefined), the concentration at 1 h in data set [1] amounted to 72 nM. For the same compound, the Drug uptake in data set [2] was determined as 154 nmol/kg. Moreover, in data set [3], the Kp at 1 h is 2.1.

As a reminder, the Kp is the ratio of the level in a tissue or fluid to that in plasma or blood.
